Results reported in US20020137929A1, “1 - (3-heterocyclylphenyl) isothiourea, -isourea, -guanidine and -amidine herbicidal agents” (Intellectual Property Department, BASF Aktiengesellschaft, priority 1998, published 2002).

Tests used:
CYPSE (Flatsedge) [1] = assay: Postemergence weed control under flooded paddy conditions; format: in vivo, Cyperus serotinus; conditions: postemergence weeds, rated 3 to 4 weeks after treatment
Procedure, shortened: (§1)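 Herbicidal effect is judged by eye on a 0–9 scale versus control, 3–4 weeks after dosing. Dosing is into flood water kept 1.5–3 cm over the soil, at about 0.0313–0.500 kg/ha in aqueous/acetone 50/50 v/v, on 3–5 cm weeds and 1.5–2.5-leaf rice seedlings.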

CYPSE (Flatsedge) [2] = assay: Preemergence weed control under flooded paddy conditions; format: in vivo, Cyperus serotinus; conditions: rated 3-4 weeks after treatment
Procedure, shortened: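 Silt loam, seeds in top 0.5 cm; flood held 1.5-3 cm; test cpd as acetone/water 50/50 into flood water, ~0.0313-0.500 kg/ha a.i.; greenhouse 3-4 wk; visual 0-9 score vs control.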

[3] = test system: TRZAWR (Wheat, Winter, cv Riband); assay: Preemergence herbicidal evaluation; format: in vivo, Triticum aestivum; conditions: preemergence, rated 4-5 weeks after treatment, 0-9 scale
Procedure, shortened: (§2)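 Each species is sown separately in potting soil over roughly an inch of soil before any emergence. The soil surface then receives an aqueous acetone spray delivering about 0.0156 to 0.500 kg/ha of compound. After four to five weeks, injury is scored from 0 to 9 relative to a control.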

ZEAMX (Corn, Field) [4] = assay: Postemergence herbicidal evaluation; format: in vivo, Zea mays; conditions: postemergence
Procedure, shortened: (§3)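 Herbicidal effect was judged by eye on a 0–9 scale covering stand, vigor, deformity, size and chlorosis, compared with controls, four to five weeks after seedlings about two weeks old were sprayed (40 psi, ~0.0156–0.500 kg/ha).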

[5] = test system: ECHORC (Watergrass (Calif.)); assay: Postemergence weed control under flooded paddy conditions; format: in vivo, Echinochloa oryzoides; conditions: postemergence weeds, rated 3 to 4 weeks after treatment
Procedure, shortened: as §1

ZEAMX (Corn, Field) [6] = assay: Preemergence herbicidal evaluation; format: in vivo, Zea mays; conditions: preemergence, rated 4-5 weeks after treatment, 0-9 scale
Procedure, shortened: as §2

[7] = test system: ECHORC (Watergrass (Calif.)); assay: Preemergence weed control under flooded paddy conditions; format: in vivo, Echinochloa oryzoides; conditions: rated 3-4 weeks after treatment
Procedure, shortened: (§4)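 Visual injury scored 0-9 against control three to four weeks post-treatment, greenhouse-grown. Application: acetone/water (50/50) solutions dosed directly into flood water (1.5-3 cm over silt loam, planted top 0.5 cm), roughly 0.0313 to 0.500 kg/ha active ingredient.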

[8] = test system: SAGPY (Arrowhead (Pygmaea)); assay: Postemergence weed control under flooded paddy conditions; format: in vivo, Sagittaria pygmaea; conditions: postemergence weeds, rated 3 to 4 weeks after treatment
Procedure, shortened: as §1

CYPIR (Rice Flatsedge) [9] = assay: Preemergence weed control under flooded paddy conditions; format: in vivo, Cyperus iria; conditions: rated 3-4 weeks after treatment
Procedure, shortened: as §4

SETVI (Foxtail, Green) [10] = assay: Preemergence herbicidal evaluation; format: in vivo, Setaria viridis; conditions: preemergence, rated 4-5 weeks after treatment, 0-9 scale
Procedure, shortened: as §2

ORYSAT (Rice, Tebonnet) = assay: Postemergence herbicidal evaluation; format: in vivo, Oryza sativa, (L.) Tebonnet; conditions: postemergence
Procedure, shortened: as §3

CYPIR (Rice Flatsedge) [11] = assay: Postemergence weed control under flooded paddy conditions; format: in vivo, Cyperus iria; conditions: postemergence weeds, rated 3 to 4 weeks after treatment
Procedure, shortened: as §1

ECHCG (Barnyardgrass) = assay: Preemergence herbicidal evaluation; format: in vivo, Echinochloa crus-galli; conditions: preemergence, rated 4-5 weeks after treatment, 0-9 scale
Procedure, shortened: as §2

SETVI (Foxtail, Green) [12] = assay: Postemergence herbicidal evaluation; format: in vivo, Setaria viridis; conditions: postemergence
Procedure, shortened: as §3

CCOC(=O)CN1C(=O)C(CC(=O)OC(C)C(=O)OCC)S/C1=N/c1cc(-n2c(=O)cc(C(F)(F)F)n(C)c2=O)c(F)cc1Cl (centres unmarked) [Compound 87]
Herbicidal rating CYPSE (CYPSE (Flatsedge) [1]; Rate 0.0313 kg/ha): 0.0 | Herbicidal rating CYPSE (CYPSE (Flatsedge) [1]; Rate 0.0625 kg/ha): 0.0 | Herbicidal rating CYPSE (CYPSE (Flatsedge) [1]; Rate 0.1250 kg/ha): 5.0 | Herbicidal rating CYPSE (CYPSE (Flatsedge) [1]; Rate 0.2500 kg/ha): 5.0 | Herbicidal rating CYPSE (CYPSE (Flatsedge) [1]; Rate 0.5000 kg/ha): 5.0 | CYPSE herbicidal effect rating (CYPSE (Flatsedge) [2]; 0.0313 kg/ha): 0.0 | CYPSE herbicidal effect rating (CYPSE (Flatsedge) [2]; 0.0625 kg/ha): 0.0 | CYPSE herbicidal effect rating (CYPSE (Flatsedge) [2]; 0.1250 kg/ha): 5.0 | CYPSE herbicidal effect rating (CYPSE (Flatsedge) [2]; 0.2500 kg/ha): 5.0 | CYPSE herbicidal effect rating (CYPSE (Flatsedge) [2]; 0.5000 kg/ha): 5.0 | TRZAWR rating ([3]; 0.1250 kg/ha): 0.0 | TRZAWR rating ([3]; 0.2500 kg/ha): 0.0 | TRZAWR rating ([3]; 0.5000 kg/ha): 1.0 | ZEAMX herbicidal rating (ZEAMX (Corn, Field) [4]; rate 0.0156 kg/ha): 4.0 | ZEAMX herbicidal rating (ZEAMX (Corn, Field) [4]; rate 0.0313 kg/ha): 4.5 | ZEAMX herbicidal rating (ZEAMX (Corn, Field) [4]; rate 0.0625 kg/ha): 5.5 | ZEAMX herbicidal rating (ZEAMX (Corn, Field) [4]; rate 0.1250 kg/ha): 7.5 | ZEAMX herbicidal rating (ZEAMX (Corn, Field) [4]; rate 0.2500 kg/ha): 8.0 | Herbicidal rating ECHORC ([5]; Rate 0.0313 kg/ha): 0.0 | Herbicidal rating ECHORC ([5]; Rate 0.0625 kg/ha): 0.0 | Herbicidal rating ECHORC ([5]; Rate 0.1250 kg/ha): 2.0 | Herbicidal rating ECHORC ([5]; Rate 0.2500 kg/ha): 3.0 | Herbicidal rating ECHORC ([5]; Rate 0.5000 kg/ha): 3.0 | ZEAMX rating (ZEAMX (Corn, Field) [6]; 0.1250 kg/ha): 0.0 | ZEAMX rating (ZEAMX (Corn, Field) [6]; 0.2500 kg/ha): 0.0 | ZEAMX rating (ZEAMX (Corn, Field) [6]; 0.5000 kg/ha): 1.0 | ECHORC herbicidal effect rating ([7]; 0.0313 kg/ha): 0.0 | ECHORC herbicidal effect rating ([7]; 0.0625 kg/ha): 0.0 | ECHORC herbicidal effect rating ([7]; 0.1250 kg/ha): 2.0 | ECHORC herbicidal effect rating ([7]; 0.2500 kg/ha): 3.0 | ECHORC herbicidal effect rating ([7]; 0.5000 kg/ha): 3.0 | Herbicidal rating SAGPY ([8]; Rate 0.0313 kg/ha): 0.0 | Herbicidal rating SAGPY ([8]; Rate 0.0625 kg/ha): 4.0 | Herbicidal rating SAGPY ([8]; Rate 0.1250 kg/ha): 4.0 | Herbicidal rating SAGPY ([8]; Rate 0.2500 kg/ha): 5.0 | Herbicidal rating SAGPY ([8]; Rate 0.5000 kg/ha): 7.0 | CYPIR herbicidal effect rating (CYPIR (Rice Flatsedge) [9]; 0.0313 kg/ha): 5.0 | CYPIR herbicidal effect rating (CYPIR (Rice Flatsedge) [9]; 0.0625 kg/ha): 5.0 | CYPIR herbicidal effect rating (CYPIR (Rice Flatsedge) [9]; 0.1250 kg/ha): 5.0 | CYPIR herbicidal effect rating (CYPIR (Rice Flatsedge) [9]; 0.2500 kg/ha): 5.0 | CYPIR herbicidal effect rating (CYPIR (Rice Flatsedge) [9]; 0.5000 kg/ha): 7.0 | SETVI rating (SETVI (Foxtail, Green) [10]; 0.1250 kg/ha): 0.0 | SETVI rating (SETVI (Foxtail, Green) [10]; 0.2500 kg/ha): 0.0 | SETVI rating (SETVI (Foxtail, Green) [10]; 0.5000 kg/ha): 9.0 | ORYSAT herbicidal rating (ORYSAT (Rice, Tebonnet); rate 0.0156 kg/ha): 0.0 | ORYSAT herbicidal rating (ORYSAT (Rice, Tebonnet); rate 0.0313 kg/ha): 0.5 | ORYSAT herbicidal rating (ORYSAT (Rice, Tebonnet); rate 0.0625 kg/ha): 1.0 | ORYSAT herbicidal rating (ORYSAT (Rice, Tebonnet); rate 0.1250 kg/ha): 1.5 | ORYSAT herbicidal rating (ORYSAT (Rice, Tebonnet); rate 0.2500 kg/ha): 4.0 | Herbicidal rating CYPIR (CYPIR (Rice Flatsedge) [11]; Rate 0.0313 kg/ha): 5.0 | Herbicidal rating CYPIR (CYPIR (Rice Flatsedge) [11]; Rate 0.0625 kg/ha): 5.0 | Herbicidal rating CYPIR (CYPIR (Rice Flatsedge) [11]; Rate 0.1250 kg/ha): 5.0 | Herbicidal rating CYPIR (CYPIR (Rice Flatsedge) [11]; Rate 0.2500 kg/ha): 5.0 | Herbicidal rating CYPIR (CYPIR (Rice Flatsedge) [11]; Rate 0.5000 kg/ha): 7.0 | ECHCG rating (ECHCG (Barnyardgrass); 0.1250 kg/ha): 0.0 | ECHCG rating (ECHCG (Barnyardgrass); 0.2500 kg/ha): 0.0 | ECHCG rating (ECHCG (Barnyardgrass); 0.5000 kg/ha): 0.0 | SETVI herbicidal rating (SETVI (Foxtail, Green) [12]; rate 0.0156 kg/ha): 0.0 | SETVI herbicidal rating (SETVI (Foxtail, Green) [12]; rate 0.0313 kg/ha): 0.0 | SETVI herbicidal rating (SETVI (Foxtail, Green) [12]; rate 0.0625 kg/ha): 2.0 | SETVI herbicidal rating (SETVI (Foxtail, Green) [12]; rate 0.1250 kg/ha): 7.0 | SETVI herbicidal rating (SETVI (Foxtail, Green) [12]; rate 0.2500 kg/ha): 7.0
